Measurements reported in patent US20220111122A1, “COMPOSITION FOR IMPROVED BONE FRACTURE HEALING” (CORTHOTEC LTD, priority 2019, published 2022).

How the values were obtained:
[1] = tested on: osteoclast number; experiment: zoledronate concentration versus osteoclast number (FIG. 4); type: cell-based; details: compared to lower concentrations
Excerpt: (§1) The graphs in FIGS. 3 and 4 depict the optimal concentrations of zoledronate (derived from zoledronic acid as the bisphosphonate) required to suppress bone resorption by means of a proportionate decrease in osteoclast number.

[2] = tested on: osteoclast activity (as measured by bone resorption); experiment: zoledronate concentration versus bone resorption (FIG. 3); type: cell-based; details: osteoclast activity decreases significantly compared to lower concentrations
Excerpt: as §1

O=P(O)(O)C(O)(Cn1ccnc1)P(=O)(O)O [zoledronic acid]
concentration of optimal efficacy to decrease osteoclast number [1]: approximately 10^−6 M | concentration of optimal efficacy to suppress bone resorption [2]: approximately 10^−6 M
